In article PMC7708037, “Targeting OGG1 arrests cancer cell proliferation by inducing replication stress” (Nucleic Acids Research, 2020):

How the values were obtained:
[1] = tested on: Hematological cancer cell lines; test: Resazurin viability, cell line panel; format: cell-based; details: read-out: EC50, average over cell lines
Description: (§1) Cells were seeded in 96- or 384-well plates and incubated for 3 days for combination experiments or 5 days for single-drug exposure experiments. Resazurin (R7017, SigmaAldrich) was added to a final concentration of 0.01 mg/ml resazurin and fluorescence was measured at ex530/em590 after incubation for 2, 4 or 6 h. Curves were fitted using XLfit software (IDBS) or Prism 8.0 (Graphpad Software), and EC50 values were determined.
(§2) Figure 3. The OGG1 inhibitor TH5487 is selectively toxic to oncogene-expressing cells and cancer cell lines. (A) Close-up view of ligand TH5487 (green) binding to human OGG1. Important residues in the binding site are marked, hydrogen bond interactions are shown in black dashed line, water (red sphere)-mediated interactions in grey dashed line. (B) Comparison between the binding of ligand TH5487 (green) to human OGG1 (gray) with the structure of TH5675 (pink) bound to mouse OGG1 (yellow, PDB 6G3Y). (C) Viability of BJ-Tert and BJ-Ras cells exposed to the indicated concentrations TH5487 for five days. Data are average ±SD of four technical replicates from two independent experiments. (D) Clonogenic survival of cell lines exposed to TH5487. The cancer cell lines ACHN and H460, and the non-transformed cell lines MRC5 and Ogg1^−/− mouse embryonic fibroblasts (MEF) were incubated for 6–11 days in the presence of the indicated concentrations TH5487, followed by colony enumeration. Data are average ±SD values of four technical replicates, representative of three independent experiments. (E) TH5487 selectively decreases viability of cancer cell lines. EC50-values of 34 cancer (red) and 7 non-transformed cell lines (blue). Cells were exposed to a dilution series of TH5487 for five days followed by a viability assessment using resazurin. All cell lines were tested in two to ten independent experiments. Each point represents the EC50-value from one experiment (average of two or three technical replicates). (F) Comparative analysis of EC50 values for TH5487 in cancer- and non-transformed cell lines, and CD34+ hematopoietic stem cells, CD34- fraction from cord blood or PBMCs from healthy donor blood. All primary blood cells were tested upon activation with Dynabeads/Phytohemagglutinin or not and exposed to a dilution series of TH5487 to calculate EC50 values by resazurin assay.

[2] = tested on: non-transformed cell lines; test: Resazurin viability, cell line panel; format: cell-based; details: Figure 3F, read-out: EC50 (loss of proliferation), average over cell lines
Description: as §1, §2

cancer cell lines = test: Resazurin viability, cell line panel; format: cell-based
Description: as §1, §2

A3 cells = test: Annexin V-staining (apoptosis); format: cell-based, human; details: 72 h
Description: The annexin V staining experiment was performed using BD Pharmingen FITC Annexin V Apoptosis Detection Kit I (cat.no 556547) according to the protocol given in the kit. Cells were washed with ice-cold PBS and then washed with 1X Annexin buffer diluted in ice-cold PBS. To the washed pellet of cells, PI and FITC Annexin V dye was added and incubated at room temperature in dark for 15 mins. After the incubation, 400 µl of annexin buffer was added and run in Navios flow cytometer (Beckman Coulter) to detect the apoptosis with blue laser(488 nm, filter 525/40 nm) and dead cells with blue laser(488 nm, filter 620/30 nm). Kaluza Flow Analysis (Beckman Coulter) was used for data analysis.
Figure 4. Anticancer properties overlap between OGG1 loss and OGG1 inhibitors. (A) Viability of T-cell acute […] leukemia cell lines treated for 5 days with the indicated doses TH5487. Data are average ±SD of independent experiments (A3, n = 5; Jurkat, n = 3; MOLT-4, n = 4; CCRF-CEM, n = 3). (B) Relative cell numbers and (C) viability (%) for A3 cells treated for 5 days with 10 μM TH5487. Data are average ±SD of six replicates from three independent experiments. […] Statistical significance was determined using unpaired, two-sided t-tests (*P < 0.05, **P < 0.01, ***P < 0.001, ****P < 0.0001, ns, non-significant).

SMILES: O=C(Nc1ccc(I)cc1)N1CCC(n2c(=O)[nH]c3c(Br)cccc32)CC1 [TH5487]
- EC50 [1]: 14.7 ± 4.7 µM
- EC50 [2]: 36.9 ± 7.5 µM
- Selectivity of growth inhibition, cancer vs non-transformed cell lines (cancer cell lines; large panel of cancer and non-transformed cell lines, 5 days): caused loss of viability in cancer cells while being better tolerated in non-transformed cell lines
- EC50 (cancer cell lines; tested cancer cell lines, Figure 3F, read-out: EC50 (loss of proliferation), average over cell lines): 17.9 ± 6.9 µM
- Apoptosis (Annexin V-propidium iodide) (A3 cells; 20 μM): more substantial
- Apoptosis (Annexin V-propidium iodide) (A3 cells; 5 and 10 μM): slight but significant increase in apoptosis
